The term IC50 denotes the concentration needed to halve the response being measured.

This passage reports IC50 results from patent publication US9242973B2, “Chromane compounds” (CoMentis, Inc., priority 2012, dated 2016).

The subject of the first test is Aβ production in SK-N-BE(2) neuroblastoma cells. Put plainly: Test Example 3: Aβ production inhibition in cell (Aβ40 ELISA, SK-N-BE(2)). The settings on record: Homo sapiens, SKNBE2, 6 h, read-out: Test Example 3 IC50. On the technique in general: In an ELISA, binding on a coated surface is turned into a signal by an enzyme label.
As to `CC1(C)Oc2ccc(NC(=O)c3ccc(Cl)cn3)cc2C2(COC(N)=N2)C12COC2` (stereo not shown) [Example 27, N-(2-amino-2′,2′-dimethyldispiro[1,3-oxazole-4,4′-chromene-3′,3″-oxetan]-6′-yl)-5-chloropyridine-2-carboxamide], the concentration for half-maximal inhibition (IC50) was 9.4 nM.

The test is the same for the next values; noted with them: Homo sapiens, SKNBE2, 6 h, read-out: Test Example 3 IC50, SK-N-BE(2) cells, 6 hours, Aβ40 ELISA normalized by viability.
With `COc1ccc(F)c(-c2ccc3c(c2)C2(COC(N)=N2)C2(COC2)CO3)c1` (stereo not shown) [RP 33], the IC50 worked out at 950 nM.

Take `CC#Cc1cncc(-c2ccc3c(c2)C2(COC(N)=N2)C2(COC2)C2(CCC2)O3)c1` (stereo not shown) [RP 109]: the half-inhibitory concentration (IC50) is 48 nM.

Regarding `NC1=NC2(CO1)c1cc(-c3cncnc3)ccc1OC(Cc1ccccc1)C21COC1` (stereo not shown) [RP 200], the IC50 came to 26 nM.

`N#Cc1cncc(-c2ccc3c(c2)C2(COC(N)=N2)C2(COC2)C2(CCC2)O3)c1` (stereo not shown) [RP 120]: the IC50 was found to be 2300 nM.

Take `CC1(C)Oc2ccc(-c3cccc4cnccc34)cc2C2(COC(N)=N2)C12COC2` (stereo not shown) [RP 180]: the IC50 amounted to 490 nM.

In the case of `CCOc1cc(-c2ccc3c(c2)C2(COC(N)=N2)C2(COC2)C2(CCC2)O3)cc(C(F)(F)F)c1` (stereo not shown) [RP 129], the half-maximal inhibitory concentration (IC50) was determined as 7300 nM.

Consider `COc1cnc(C(=O)Nc2ccc3c(c2)C2(COC(N)=N2)C2(CC2)CO3)cn1` (stereo not shown) [RP 193], for which the IC50 came out at 81 nM.

`CC1(C)Oc2ccc(Br)cc2C2(COC(N)=N2)C12COC2` (stereo not shown) [RP 6, 6′-bromo-2′,2′-dimethyldispiro[1,3-oxazole-4,4′-chromene-3′,3″-oxetan]-2-amine]: the IC50 is 3900 nM.

`NC1=NC2(CO1)c1cc(Nc3ncccc3Cl)ccc1OC1(CCC1)C21COC1` (stereo not shown) [RP 44]: the 50% inhibitory concentration (IC50) was found to be 98 nM.

In the case of `CC1(C)Oc2ccc(-c3cccc4[nH]ncc34)cc2C2(COC(N)=N2)C12COC2` (stereo not shown) [RP 176], the concentration for half-maximal inhibition (IC50) was determined as 850 nM.

As for `NC1=NC2(COC1)c1cc(-c3cncnc3)ccc1OCC21CC1` (stereo not shown) [RP 215, 6′-(pyrimidin-5-yl)-6″H-dispiro[cyclopropane-1,3′-chromene-4′,3″-[1,4]oxazin]-5″-amine], the IC50 came out at 240 nM.

On to `CCc1cncc(-c2ccc3c(c2)C2(COC(N)=N2)C2(CC2)CO3)c1` (stereo not shown) [RP 63], for which the half-inhibitory concentration (IC50) amounted to 3300 nM.

As for `CC1(C)Oc2ccc(-c3cccc(Cl)c3)cc2C2(COC(N)=N2)C12COC2` (stereo not shown) [RP 139], the IC50 turned out to be 140 nM.

`CC#Cc1cncc(-c2ccc3c(c2)C2(COC(N)=N2)C2(COC2)C(Cc2ccccc2)O3)c1` (stereo not shown) [RP 201]: the concentration for half-maximal inhibition (IC50) came to 8.7 nM.

On to `NC1=NC2(CO1)c1cc(-c3cnc4[nH]ccc4c3)ccc1OCC21CC1` (stereo not shown) [RP 61, 6′-(1H-pyrrolo[2,3-b]pyridin-5-yl)dispiro[cyclopropane-1,3′-chromene-4′,4″-[1,3]oxazol]-2″-amine], for which the 50% inhibitory concentration (IC50) is 350 nM.

Turning to `CC1(C)Oc2ccc(NC(=O)c3ccc(F)cn3)cc2[C@@]2(COC(N)=N2)C12CC2` [Example 222], the IC50 worked out at 0.62 nM.

Take `COc1cccc(-c2ccc3c(c2)C2(COC(N)=N2)C2(COC2)C2(CCC2)O3)c1` (stereo not shown) [RP 126]: the IC50 came out at 1200 nM.

For the compound `CC#Cc1cncc(-c2ccc3c(c2)C2(COC(N)=N2)C2(COC2)C(CC2CC2)O3)c1` (stereo not shown) [RP 205], the concentration for half-maximal inhibition (IC50) stood at 22 nM.

As for `CC1(C)Oc2ccc(-c3cncc(Cl)c3)cc2C2(COC(N)=N2)C12COC2` (stereo not shown) [RP 173], the IC50 was 73 nM.

Turning to `CC#Cc1cncc(-c2ccc3c(c2)C2(COC(N)=N2)C2(CC2)CO3)c1` (stereo not shown) [RP 111], the IC50 was 140 nM.

Turning to `N#Cc1cccc(-c2ccc3c(c2)C2(COC(N)=N2)C2(COC2)C2(CCC2)O3)c1` (stereo not shown) [RP 128], the half-inhibitory concentration (IC50) was found to be 1500 nM.

In the case of `NC1=NC2(CO1)c1cc(Nc3ncccc3Cl)ccc1OCC21COC1` (stereo not shown) [RP 43, 6′-(3-chloropyridin-2-yl)aminodispiro[1,3-oxazole-4,4′-chromene-3′,3″-oxetane]-2-amine], the IC50 was 1400 nM.

Regarding `CCOc1cc(F)cc(-c2ccc3c(c2)C2(COC(N)=N2)C2(COC2)C2(CCC2)O3)c1` (stereo not shown) [RP 133], the IC50 turned out to be 2800 nM.

As for `NC1=NC2(CO1)c1cc(-c3cccnc3F)ccc1OC1(CCC1)C21COC1` (stereo not shown) [RP 71], the half-inhibitory concentration (IC50) turned out to be 110 nM.

Consider `CC#Cc1cc(-c2ccc3c(c2)C2(COC(N)=N2)C2(COC2)CO3)ccn1` (stereo not shown) [RP 20], for which the IC50 stood at 580 nM.

As to `COC/C=C/c1ccc2c(c1)C1(COC(N)=N1)C1(COC1)C(C)(C)O2` (stereo not shown) [RP 181], the half-maximal inhibitory concentration (IC50) came out at 820 nM.

For the compound `N#Cc1ccc(C(=O)Nc2ccc3c(c2)C2(COC(N)=N2)C2(CC2)CO3)nc1` (stereo not shown) [RP 196], the IC50 came out at 53 nM.

As to `COc1ccnc(-c2ccc3c(c2)C2(COC(N)=N2)C2(COC2)C(C)(C)O3)c1` (stereo not shown) [RP 65, 6′-(4-methoxypyridin-2-yl)-2′,2′-dimethyldispiro[1,3-oxazole-4,4′-chromene-3′,3″-oxetan]-2-amine], the half-maximal inhibitory concentration (IC50) is 49 nM.

Regarding `CC1(C)Oc2ccc(-c3cncnc3)cc2C2(COC(N)=N2)C12COC2` (stereo not shown) [RP 69], the IC50 was found to be 40 nM.

In the case of `COc1cncc(-c2ccc3c(c2)C2(COC(N)=N2)C2(CC2)CO3)c1` (stereo not shown) [RP 105], the half-maximal inhibitory concentration (IC50) stood at 340 nM.

For the compound `NC1=NC2(CO1)c1cc(-c3cncnc3)ccc1OC1(CCCC1)C21COC1` (stereo not shown) [RP 85], the IC50 was found to be 77 nM.

`NC1=NC2(CO1)c1cc(-c3cncc(F)c3)ccc1OC1(CCC1)C21COC1` (stereo not shown) [RP 70]: the IC50 was 960 nM.

Regarding `CC1(C)Oc2ccc(-c3cc(F)cc(F)c3)cc2C2(COC(N)=N2)C12COC2` (stereo not shown) [RP 147], the half-maximal inhibitory concentration (IC50) was found to be 170 nM.

For the compound `CC1(C)Oc2ccc(-c3ccc4[nH]ncc4c3)cc2C2(COC(N)=N2)C12COC2` (stereo not shown) [RP 177], the IC50 worked out at 1500 nM.

Consider `CCOc1cccc(-c2ccc3c(c2)C2(COC(N)=N2)C2(COC2)C2(CCC2)O3)c1` (stereo not shown) [RP 131], for which the half-inhibitory concentration (IC50) was 3200 nM.

Regarding `NC1=NC2(c3cc(-c4cncnc4)ccc3OCC23CC3)c2cccc(F)c21` (stereo not shown) [RP 199], the IC50 amounted to 240 nM.

For the compound `CC(C)CC1Oc2ccc(-c3cncnc3)cc2C2(COC(N)=N2)C12COC2` (stereo not shown) [RP 93], the IC50 stood at 370 nM.

Take `NC1=NC2(CO1)c1cc(-c3cncc(Cl)c3)ccc1OCC21CC1` (stereo not shown) [RP 107]: the half-maximal inhibitory concentration (IC50) is 460 nM.

For `CC1(C)Oc2ccc(-c3cccc4cccnc34)cc2C2(COC(N)=N2)C12COC2` (stereo not shown) [RP 179], the 50% inhibitory concentration (IC50) was 1400 nM.

For `NC1=NC2(CO1)c1cc(-c3cncc(C(F)(F)F)c3)ccc1OC1(CCC1)C21COC1` (stereo not shown) [RP 99], the half-maximal inhibitory concentration (IC50) stood at 1900 nM.

For the compound `COc1cccnc1Nc1ccc2c(c1)C1(COC(N)=N1)C1(COC1)C1(CCC1)O2` (stereo not shown) [RP 45], the half-inhibitory concentration (IC50) was determined as 57 nM.

In the case of `CC1(C)Oc2ccc(-c3cnc4[nH]ccc4c3)cc2C2(COC(N)=N2)C12COC2` (stereo not shown) [RP 168], the IC50 was found to be 310 nM.

As to `COc1cc(-c2ccc3c(c2)C2(COC(N)=N2)C2(COC2)C2(CCC2)O3)c(F)cn1` (stereo not shown) [RP 122], the IC50 came to 1100 nM.

Regarding `Cc1cccc(-c2ccc3c(c2)C2(COC(N)=N2)C2(COC2)C2(CCC2)O3)c1` (stereo not shown) [RP 127], the IC50 amounted to 1800 nM.

Consider `NC1=NC2(CO1)c1cc(-c3cc(Cl)cnc3F)ccc1OC1(CCC1)C21COC1` (stereo not shown) [RP 73], for which the IC50 is 70 nM.

As to `CC#Cc1cc(-c2ccc3c(c2)C2(COC(N)=N2)C2(COC2)CO3)ncn1` (stereo not shown) [RP 21], the concentration for half-maximal inhibition (IC50) is 410 nM.

Turning to `COc1cccc(-c2ccc3c(c2)C2(COC(N)=N2)C2(COC2)C2(CCC2)O3)c1F` (stereo not shown) [RP 137], the IC50 amounted to 830 nM.

As for `NC1=NC2(CO1)c1cc(-c3cncc(C#CC4CC4)c3)ccc1OC1(CCC1)C21COC1` (stereo not shown) [RP 48, 6′-[5-(cyclopropylethynyl)pyridin-3-yl]trispiro[cyclobutane-1,2′chromene-4′,4″-[1,3]oxazole-3′,3′″-oxetan]-2″-amine], the IC50 was 690 nM.
